In patent publication US12268657B2, “Coenzyme Q10 composition, and preparation method and application thereof in cardio-protection” (Guangdong Runhe Biotechnology Co., Ltd, priority 2023, dated 2025):

System: myocardial ischemia rat models
Experiment: Protective effect on myocardial ischemia in rat model (coronary artery clamping)
Type: in vivo
Conditions: SD rats, 0.2 mg/kg per day for one week
Protocol: Specifically, several SD rats weighing about 200 g were selected to prepare myocardial ischemia rat models by a coronary artery clamping method. The successful-established model rats were uniformly divided into a blank group, a control group, and a treatment group, with 8 rats in each group. The blank group was not treated with any drug during the observation period, the control group was administered with 0.2 mg/kg of coenzyme Q10 per day for one week, and the treatment group was administered with 0.2 mg/kg of the coenzyme Q10 slow-release drug per day for one week. After the one-week administration, the myocardial infarction area, and superoxide dismutase (SOD) and malondialdehyde (MDA) content in the serum of the rats after artery ligation were recorded, and the results were shown in the table below. […] Moreover, after treatment with the slow-release drug, the activity of SOD was improved, and the generation of MDA was inhibited, which was favorable to reducing the occurrence of infarction.

COC1=C(OC)C(=O)C(C/C=C(\C)CC/C=C(\C)CC/C=C(\C)CC/C=C(\C)CC/C=C(\C)CC/C=C(\C)CC/C=C(\C)CC/C=C(\C)CC/C=C(\C)CCC=C(C)C)=C(C)C1=O [coenzyme Q10, Coenzyme Q10] was tested, and the “Myocardial infarction area (%)” value was 14.69 ± 1.14%, the “MDA” value (serum) was 6.57 ± 0.68 nmol/mL and the “SOD (NU/mL)” value (serum) was 220.34 ± 8.56 NU/mL.
